{"source": "patent US8673587B2", "about": "“Methods for identifying allosteric and other novel acyl-coenzyme A:cholesterol acyltransferase inhibitors” (Trustees of Dartmouth College, priority 2010, dated 2014)", "key": {"[1]": {"biological_target": "T1, histidine-tagged recombinant human ACAT1 (Homo sapiens, UniProt P35610, M1L)", "T1 construct": "hACAT-1 cDNA (nucleotide residues 1397-3046, a total of 550 amino acids); made in house; partially purified on a nickel column", "T1 sequence (P35610 1-550 M1L)": "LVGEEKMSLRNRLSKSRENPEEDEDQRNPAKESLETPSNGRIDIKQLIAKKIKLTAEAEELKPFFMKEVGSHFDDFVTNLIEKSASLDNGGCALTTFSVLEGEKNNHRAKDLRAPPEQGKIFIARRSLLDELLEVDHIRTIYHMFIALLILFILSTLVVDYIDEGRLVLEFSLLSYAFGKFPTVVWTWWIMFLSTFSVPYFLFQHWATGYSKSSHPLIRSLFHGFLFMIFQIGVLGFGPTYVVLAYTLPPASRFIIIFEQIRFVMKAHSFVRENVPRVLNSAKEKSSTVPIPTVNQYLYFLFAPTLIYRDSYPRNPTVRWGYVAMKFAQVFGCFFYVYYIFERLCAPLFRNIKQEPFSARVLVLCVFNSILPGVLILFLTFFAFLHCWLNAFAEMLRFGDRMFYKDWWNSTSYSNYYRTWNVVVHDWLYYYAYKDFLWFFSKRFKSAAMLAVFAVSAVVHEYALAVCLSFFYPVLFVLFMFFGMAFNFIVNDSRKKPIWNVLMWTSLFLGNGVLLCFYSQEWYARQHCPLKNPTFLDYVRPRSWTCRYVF", "experiment": "Steroid (pregnenolone/DHEA/E2) esterification in mixed micelles, ACAT1 as enzyme source", "type": "biochemical", "settings": "for activation of pregnenolone esterification by sterol: sterol at 0.32 mM, 1 μM [3H]-pregnenolone; for ACAT1 substrate activity: 1 μM [3H]-steroid", "source_text": "(§1) The method of the present invention was developed in experiments using a mixed micelle enzyme assay system. […] A candidate ACAT inhibitor is an allosteric inhibitor if it is shown in the method of the present invention to inhibit cholesterol-dependent pregnenolone esterification but not to inhibit the basal pregnenolone esterification when cholesterol is absent in the assay mixture. […] In the assay system of the present invention, the source of ACAT was histidine-tagged recombinant human ACAT1 or human ACAT2, stably expressed in Chinese hamster ovary (CHO) cells that lack endogenous ACAT activity. However, one of skill in the art could employ other suitable mammalian cell systems as needed. The enzyme preparations used in the present method were partially purified through the use of nickel column chromatography, as described previously (Liu et al. 2005. Biochem. J. 391:389-397), using cells that stably expressing histidine-tagged recombinant human ACAT1 or human ACAT2 as the enzyme source.\n(§2) In developing the method of the present invention, a series of experiments was performed. Pregnenolone is one compound that contains the classical A, B, C, D steroid rings as well as a 3 beta-OH moiety. Based on its structure, pregnenolone may be an ACAT substrate. However, this possibility had not previously been tested experimentally. In the present invention, the activity of pregnenolone was tested by using radiolabeled pregnenolone ([^3H]-pregnenolone) in a mixed micelle enzyme assay mixture that contained the detergent taurocholate (or CHAPS), phosphatidylcholine, and oleyl-coenzyme A bound to bovine serum albumin (BSA). The enzyme used was histidine-tagged human ACAT1 or human ACAT2. The esterification of pregnenolone (i.e., formation of pregnenolone oleate) was monitored by performing lipid extraction to isolate [^3H]-pregnenolone oleate and [^3H]-pregnenolone. [^3H]-pregnenolone oleate was then separated from [^3H]-pregnenolone by using conventional thin-layer chromatography. Levels of [^3H]-pregnenolone oleate formed was measured using a scintillation counter. […] Thus, using ACAT1 as the enzyme source, the esterification of DHEA was examined (FIG. 1C).\nA pregnenolone substrate saturation curve was then constructed, with or without addition of cholesterol to the assay mixture, using ACAT1 as the enzyme source (FIG. 2A). […] Then, a DHEA substrate saturation curve was constructed, with cholesterol present.\nFurther experiments were performed to examine the effect of adding various non-oxysterols, at a concentration of 0.32 mM, on pregnenolone esterification in vitro, with ACAT1 as the enzyme source.\n(§3) To assay the enzyme, the pregnenolone/detergent/PC micelles and the cholesterol/detergent/PC micelles were prepared individually as follows: the radiolabeled pregnenolone/PC mixture or the cholesterol/PC mixture was prepared as described previously (Shi et al. 1989. Biochim. Biophys. Acta 982:187-195) and lyophilized to remove residual organic solvents. After lyophilization, the detergent sodium taurocholate (or other detergent such as CHAPS) in Buffer A was added to reach a final concentration of 10 mg/ml. The mixture was purged with nitrogen, followed by sonication until this mixture was clear. The pregnenolone/PC micelles were mixed with the cholesterol/PC micelles such that the cholesterol concentration is at 0 mM or at 0.32 mM, and the radioactive pregnenolone concentration is at 1 μM (specific activity 20 Ci/mmol)."}, "[2]": {"test_system": "amyloid precursor protein (APP)", "settings": "cited from earlier work"}, "[3]": {"biological_target": "T2, HisACAT1/FLAG (recombinant hACAT1) (Homo sapiens, UniProt P35610, M1L)", "T2 construct": "hACAT1 contains 550 amino acids; made in house", "T2 sequence (P35610 1-550 M1L)": "T1 sequence (P35610 1-550 M1L)", "experiment": "Ligand binding by change in intrinsic (tryptophan) fluorescence of HisACAT1/FLAG", "settings": "for maximal increase in fluorescence peak height with respect to unliganded ACAT1 protein: excitation 295 nm, peak 330 nm", "source_text": "Fluorescence measurements were generated using an ISS PC1 photocounting fluorescence spectrophotometer (model 90095). This instrument has continuously reproducible slits ranging from 0.4 to 32 nm band-pass. The excitation slit width was set at 2 nm. The wavelength for excitation was set at 295 nm in order to minimize the contribution of tyrosine residues to the fluorescence. Purified HisACAT1/FLAG was concentrated using 30K AMICON centrifugal filters such that the final concentration of the protein was 100-200 ng/μL (1.5-3 μM). Purified protein was stored at −80° C. until used. Unless stated otherwise, the fluorescence measurements were performed at pH 7.8 with 50 mM potassium phosphate, 0.5M KCl, and 8.13 mM CHAPS. Sterol (cholesterol, epicholesterol, coprostanol, and epicoprostanol) was prepared as CHAPS/PC/sterol mixed micelles (with CHAPS at 8.13 mM, PC at 4 mM, and with varying concentrations of sterols as indicated) and stored at 20° C. in the dark until usage. The fatty acyl-CoAs were dissolved in 20 mM sodium acetate at pH 6.4 as a 2 mM stock and stored at −80° C. until used. Before the experiment started, all reagents were kept on ice in the dark. To begin the experiment, 50 μL of mixed micelles without or with sterols was added into a HELLMA microcuvette with 3 mm light path. Twenty-five microliters of ACAT1 protein (in 8.13 mM CHAPS and 0.5 M KCl) was then added and rapidly mixed. Fluorescence was monitored within 15 seconds of adding the enzyme. The sample compartment of the instrument was maintained at 20° C. The fluorescence emission spectrum was scanned in 2 minutes between 310 and 410 nm. The differences in fluorescence intensity at 10 intervals within 325-335 nm were averaged in order to calculate the ΔF value between the ligated protein vs that of the unligated protein.\nBinding studies were subsequently conducted by monitoring the effect of increasing concentrations of oleoyl-CoA on the intrinsic fluorescence of HisACAT1/FLAG. […] However, the maximal change in the peak of the spectrum was much smaller (5% with respect to the unliganded protein). […] The data was analyzed for a simple bimolecular dissociation equilibrium using the PRISM program.\nBinding experiments were subsequently performed by monitoring the effect of increasing concentrations of cholesterol, from 10 to 600 μM, on the intrinsic fluorescence of HisACAT1/FLAG. […] It was estimated that the cholesterol concentration that caused half-maximal spectral change was 35 μM. […] The changes in the intrinsic fluorescence of ACAT1 caused by cholesterol, epicholesterol, coprostanol, or epicoprostanol as the ligand were also compared."}, "[4]": {"biological_target": "T3, histidine-tagged recombinant human ACAT2 (Homo sapiens, UniProt O75908)", "T3 construct": "made in house; partially purified on a nickel column", "T3 sequence (O75908 1-522)": "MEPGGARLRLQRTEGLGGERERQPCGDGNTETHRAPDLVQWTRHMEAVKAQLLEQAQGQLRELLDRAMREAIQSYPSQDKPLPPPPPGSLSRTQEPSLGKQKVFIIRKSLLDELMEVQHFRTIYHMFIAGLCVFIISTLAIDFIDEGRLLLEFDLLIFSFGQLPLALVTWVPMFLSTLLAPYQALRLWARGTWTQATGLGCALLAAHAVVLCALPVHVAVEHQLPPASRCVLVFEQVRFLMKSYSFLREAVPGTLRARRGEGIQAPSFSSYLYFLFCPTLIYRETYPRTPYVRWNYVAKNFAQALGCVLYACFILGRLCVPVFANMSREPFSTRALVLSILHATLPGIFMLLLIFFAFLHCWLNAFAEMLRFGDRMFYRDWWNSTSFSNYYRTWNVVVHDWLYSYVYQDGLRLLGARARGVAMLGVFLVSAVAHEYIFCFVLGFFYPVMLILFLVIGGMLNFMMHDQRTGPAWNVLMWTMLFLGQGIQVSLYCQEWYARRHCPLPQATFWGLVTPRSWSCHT", "experiment": "Pregnenolone esterification in mixed micelles, ACAT2 as enzyme source", "type": "biochemical", "settings": "ACAT2; for activation of pregnenolone esterification by sterol: sterol at 0.32 mM, 1 μM [3H]-pregnenolone", "source_text": "as §1, §2, §3"}}, "data": [{"smiles": "CC(C)CCCC(C)C1CCC2C3CC=C4CC(O)CCC4(C)C3CCC12C", "note": "(single isomer, unassigned) [enantiomeric (ent-)cholesterol]", "values": [{"measurement": "activation of pregnenolone esterification by sterol", "setting": "[1]; ACAT1", "value": "much less efficiently than sitosterol"}]}, {"smiles": "CC(C)CCC[C@@H](C)[C@H]1CC[C@H]2[C@@H]3[C@H](O)C=C4C[C@@H](O)CC[C@]4(C)[C@H]3CC[C@]12C", "note": "[7-alpha-OH-cholesterol]", "values": [{"measurement": "activation of pregnenolone esterification by sterol", "setting": "[1]; ACAT1", "value": "least activation"}]}, {"smiles": "CC(C)CC[C@@H](O)[C@@H](C)[C@H]1CC[C@H]2[C@@H]3CC=C4C[C@@H](O)CC[C@]4(C)[C@H]3CC[C@]12C", "note": "[22R-hydroxy-cholesterol]", "values": [{"measurement": "activation of pregnenolone esterification by sterol", "setting": "[1]; ACAT1", "value": "least activation"}]}, {"smiles": "CCCCCCCC[C@H](SCCCCCC)C(=O)Nc1c(SC)cc(C)nc1SC", "note": "[CP113818]", "values": [{"measurement": "full-length human APP content", "setting": "[2]; animal model for AD", "value": "did not cause a reduction"}, {"measurement": "processing of APP", "setting": "[2]; animal models for AD", "value": "inhibit the processing of both human amyloid precursor protein (APP) and mouse APP"}]}, {"smiles": "C[C@]12CC[C@H](O)CC1=CC[C@@H]1[C@@H]2CC[C@]2(C)C(=O)CC[C@@H]12", "note": "[DHEA, dihydroepiandrosterone]", "values": [{"measurement": "ACAT1 substrate activity", "setting": "[1]; absence of cholesterol", "value": "did not exhibit ACAT substrate activity"}, {"measurement": "ACAT1 substrate activity", "setting": "[1]; presence of excess cholesterol (0.32 mM)", "value": "exhibited significant substrate activity"}, {"measurement": "apparent Km as ACAT1 substrate", "setting": "[1]; with cholesterol present in vitro (0.32 mM)", "value": "too high to be measurable"}]}, {"smiles": "CC(C)CCC[C@@H](C)[C@H]1CC[C@H]2[C@@H]3CC=C4C[C@H](O)CC[C@]4(C)[C@H]3CC[C@]12C", "note": "[Epi-cholesterol]", "values": [{"measurement": "maximal increase in fluorescence peak height with respect to unliganded ACAT1 protein", "setting": "[3]", "value": "much smaller than those caused by cholesterol"}, {"measurement": "concentration that caused half-maximal spectral change", "setting": "[3]; ligand 10 to 600 μM", "value": "too small to derive a reliable binding curve"}, {"measurement": "activation of pregnenolone esterification by sterol", "setting": "[1]; ACAT1", "value": "much less efficiently than sitosterol"}]}, {"smiles": "CC[C@H](CC[C@@H](C)[C@H]1CC[C@H]2[C@@H]3CC=C4C[C@@H](O)CC[C@]4(C)[C@H]3CC[C@]12C)C(C)C", "note": "[Sitosterol]", "values": [{"measurement": "activation of pregnenolone esterification by sterol", "setting": "[4]", "value": "only slightly activated"}, {"measurement": "activation of pregnenolone esterification by sterol", "setting": "[1]; ACAT1", "value": "not as efficiently as cholesterol"}]}, {"smiles": "CC(C)CCC[C@@H](C)[C@H]1CC[C@H]2[C@@H]3CC=C4C[C@@H](O)CC[C@]4(C)[C@H]3CC[C@]12C", "note": "[cholesterol]", "values": [{"measurement": "maximal increase in fluorescence peak height with respect to unliganded ACAT1 protein", "setting": "[3]", "value": "up to 35%"}, {"measurement": "EC50", "setting": "[3]; ligand 10 to 600 μM, read-out: concentration that caused half-maximal spectral change", "value": 35, "unit": "µM"}, {"measurement": "activation of pregnenolone esterification", "setting": "[4]; cholesterol added to assay mixture", "value": "more than 100 fold"}, {"measurement": "activation of pregnenolone esterification by sterol", "setting": "[4]", "value": "maximal activation"}, {"measurement": "activation of pregnenolone esterification", "setting": "[1]; ACAT1, cholesterol added to assay mixture", "value": "more than 100 fold"}, {"measurement": "activation of pregnenolone esterification by sterol", "setting": "[1]; ACAT1", "value": "maximal activation"}]}, {"smiles": "CC(C)[C@@H](C)/C=C/[C@@H](C)[C@H]1CC[C@H]2C3=CC=C4C[C@@H](O)CC[C@]4(C)C3=CC[C@]12C", "note": "[dehydroergosterol]", "values": [{"measurement": "activation of pregnenolone esterification by sterol", "setting": "[1]; ACAT1", "value": "much less efficiently than sitosterol"}]}, {"smiles": "CCCCCCCCCCCCCCCCCC(=O)SCCNC(=O)CCNC(=O)[C@H](O)C(C)(C)COP(=O)(O)OP(=O)(O)OC[C@H]1O[C@@H](n2cnc3c(N)ncnc32)[C@H](O)[C@@H]1OP(=O)(O)O", "note": "[stearoyl-CoA]", "values": [{"measurement": "maximal increase in fluorescence peak height with respect to unliganded ACAT1 protein", "setting": "[3]", "value": 5, "unit": "%"}, {"measurement": "dissociation constant", "setting": "[3]; simple bimolecular dissociation equilibrium, PRISM", "value": "too small to derive a reliable dissociation constant"}]}]}
